{"source": "patent US20230226228A1", "about": "“POSITRON IMAGING TOMOGRAPHY IMAGING AGENT COMPOSITION AND METHOD FOR DETECTION OF BACTERIAL INFECTION” (priority 2020, published 2023)", "key": {"[1]": {"assay": "In vivo metabolite analysis in blood and urine of healthy rats (radio-HPLC)", "parameters": "species or system Sprague-Dawley rats", "description": "FIG. 7. Analysis of metabolites in the plasma and urine of healthy rats after intravenous injection (IV) of 2-[^18F]F-ENB. After IV administration of 2-[^18F]F-ENB, the animals were sacrificed at each time point (n=3 rats) and the blood and urine samples were collected for radio-HPLC analysis. […] The percent of each metabolite in blood (B) and urine (C) is shown.\n2-[^18F]F-ENB (1 mCi) was injected via the tail vein into healthy female Sprague-Dawley rats (10 weeks old, Charles River). […] The mixture was centrifuged at 13 400 rpm for 5 min to remove the protein, and the supernatant and protein pellet were analyzed by gamma counter to determine the efficiency of extraction. […] The radioactive fractions corresponding to each cold standard were collected and analyzed using a gamma counter from which the percentage of each metabolite was calculated (n=3).\nAnalysis of the radioactive metabolites in the urine was performed using a similar procedure from samples obtained from the bladder 30 and 60 min after tracer injection. The urine was diluted with 45% MeCN/H2O, centrifuged at 13 400 rpm for 5 min and spiked with cold standards for radio-HPLC analysis."}, "S. aureus Xen29 [2]": {"test_system": "S. aureus Xen29", "assay": "PET imaging of infective endocarditis rat model", "format": "in vivo, Sprague-Dawley rats", "details": "day-3 post infection, 60 min and 120 min post tracer injection", "from_the_text": "Female Sprague-Dawley rats (weight, ˜200 g, Charles River) were maintained in an anesthetized state with an isofluorane-oxygen gas mixture during surgery. A sterile polyethylene catheter was placed and positioned in the left ventricle through a small incision via the retrograde transcarotid artery approach.\nThe catheter was left in place throughout the experiments. At 24-hour post-catheterization, the rats were infected intravenously through the tail vein with an inoculum of S. aureus Xen29 of 10^6 CFU in 0.5 mL sterile saline. The animals were imaged for bioluminescence signal in the region of the hearts with IVIS daily after infection. The optimal BLI signal over the heart area was determined to be day-3 post inoculation (FIG. 15A and FIG. 16A)."}, "S. aureus Xen36": {"test_system": "S. aureus Xen36", "assay": "PET imaging of prosthetic joint infection (PJI) mouse model", "format": "in vivo, Balb/c mice", "details": "day-2 post infection, 60 min and 120 min post tracer injection", "description": "Balb/c mice was anesthetized by inhalation of a mixture of isofluorane and oxygen. A medical-grade stainless steel Kirschner wire was inserted into the distal part of the femur which has been exposed by dislocation of the patella and reamed with a 25-gauge needle. 2 μL of S. aureus Xen36 (4 log 10 CFU) will be inoculated into the knee joint and onto the wire before the surgical incision is closed with absorbable sutures. The correct position of the wire in the canal was performed with X-ray scan. The animals were imaged for bioluminescence signal in the region of the surgical joint with IVIS daily after infection. The optimal BLI signal over the joint area was determined to be day-2 post inoculation (FIG. 20A)."}, "S. aureus Xen29 [3]": {"test_system": "S. aureus Xen29", "assay": "PET/CT imaging of rat triceps infection / sterile inflammation model (S. aureus Xen29)", "format": "in vivo, Sprague-Dawley rats", "details": "180 min post tracer injection", "description": "FIG. 5. PET/CT imaging of rats infected in the right triceps with the bioluminescent Xen29 strain of S. aureus. (A) Experimental design. (B) 2-[^18F]F-ENB-derived radioactivity accumulates in the infected triceps (red arrow) but not the inflamed triceps (yellow arrow) at 3 h post tracer administration.\nFIG. 8. PET/CT imaging of 2-[^18F]F-NB in a rat model of S. aureus Xen29 infection. (A) Radiosynthesis of 2-[^18F]F-NB. (i) [^18F]potassium fluoride, Kryptofix222, potassium carbonate, dimethyl sulfoxide, r.t., 10 min; (ii) 2 M potassium hydroxide in H2O, 105° C., 10 min; Overall decay-corrected radiochemical yield: 26% (n=1).\nFIG. 10. Time activity curve (TAC) in infected triceps, inflamed triceps and blood and biodistribution of 2-[^18F]F-NB in major organs. (a) The right triceps of the rats were infected with S. aureus Xen 29 and the left triceps were injected with a 10-fold higher burden of heat-killed S. aureus to induce sterile inflammation. The rats were scanned by PET/CT for 120 min (rats with sterile inflammation in the left triceps) immediately starting from tracer administration. The PET scan was separated into ten frames (1-min) and twenty-two frames (5-min). TACs of infected triceps (blue), inflamed triceps (grey) and blood (left heart ventricle, red) are shown. Data represented as mean with standard error of the mean (n=4). (b) Time-dependent accumulation of 2-[^18F]F-NB in infected and inflamed triceps compared to the blood (left heart ventricle). Data are presented as the mean and standard error of the mean (n=4). […]\nS. aureus (Newman or Xen29) was cultured overnight by inoculating 5 μL of bacteria from a glycerol stock into 10 mL of fresh cation-adjusted Mueller-Hinton (CAMH) broth or tryptic soy broth (TSB). […] After imaging, the infected triceps were collected, homogenized in PBS using a hand-held homogenizer, and the bacterial burden at the time of imaging was determined by plating the muscle tissues onto solid MH medium. After overnight incubation at 37° C., CFUs were quantified by enumeration. […]"}, "[4]": {"format": "in vitro ADME, Sprague-Dawley rat", "details": "rat serum, 85 min incubation", "description": "FIG. 6. In vitro metabolic stability of 2-[^18F]F-ENB in rat and human plasma. (a-d) HPLC traces of metabolites of 2-[^18F]F-ENB incubated with rat plasma at different time points (2 min, 10 min, 30 min, 85 min) and spiked with cold standards.\n2-[^18F]F-ENB (600 μCi) was incubated with Sprague-Dawley rat plasma (5.0 mL) at 37° C. Subsequently, 0.4 mL aliquots of the plasma were taken 2, 10, 30, and 85 min after addition of the tracer, and 0.6 mL of MeCN was added to quench the metabolism. The mixture was centrifuged at 13 400 rpm for 10 min to remove proteins, and both the supernatant and the protein pellet were analyzed by gamma counting to calculate the extraction efficiency. […] The radioactive fractions corresponding to each cold standard were collected and radioactivity was quantified using a gamma counter from which the percentage of each metabolite was calculated."}}, "data": [{"smiles": "CCOC(=O)c1ccc([N+](=O)[O-])cc1[18F]", "note": "[2-[^18F]F-ENB, Ethyl 2-[^18F]F-4-nitrobenzoate]", "values": [{"measurement": "radioactive components in blood after IV administration", "setting": "[1]; blood at 5, 30 and 60 min", "value": "2-[^18F]F-NB was the predominant radioactive component at each time point"}, {"measurement": "radioactive components in urine after IV administration", "setting": "[1]; urine at 30 and 60 min post injection", "value": "the majority of the radioactive signal could be attributed to 2-[^18F]F-NB"}, {"measurement": "PET signal over the heart region", "setting": "S. aureus Xen29 [2]", "value": "a robust radioactive signal was detected over the heart region"}, {"measurement": "PET signal over the joint region", "setting": "S. aureus Xen36", "value": "a robust radioactive signal was detected over the joint region"}, {"measurement": "localisation of radioactive signal", "setting": "S. aureus Xen29 [3]", "value": "predominantly observed in the infected triceps"}, {"measurement": "stability of the nitro group", "setting": "[4]", "value": "the nitro group was unaffected"}]}]}
